Values of other authors as cited in US11827443B2, “Aerosol foam dispenser” (The Procter & Gamble Company, priority 2021, dated 2023).

Details: in water at 20° C.

Water solubility at 20° C. (weight percent)	Structure (SMILES)
7% weight percent	COC [Dimethyl ether]
<0.01% weight percent	CC(C)C [Isobutane]

Continued, molecule first:

Structure (SMILES)	Water solubility at 20° C. (weight percent)
[N-]=[N+]=O [Nitrous oxide]	0.12 weight percent
[He] [Helium]	<0.01 weight percent
CCCC [Butane]	<0.01% weight percent
O=C=O [Carbon dioxide]	0.8% weight percent
